{"source": "patent US20130090371A1", "about": "“METHODS AND COMPOSITIONS FOR INHIBITION OF BETA2-ADRENERGIC RECEPTOR DEGRADATION” (PRESIDENT AND FELLOWS OF HARVARD COLLEGE, priority 2010, published 2013)", "key": {"[1]": {"test_system": "latrophilin 2", "assay": "Quantitative real-time PCR of latrophilin 2 expression", "type": "cell-based, human", "conditions": "vs NT siRNA", "text": "FIG. 11A-11C show inhibition of an EST RNA (AA496068) increases latrophilin 2 expression and decreases β2-AR degradation. FIG. 11A show the genomic locus that is targeted by AA496068 EST shRNA (SEQ ID NO: 2). The shRNA corresponds to sequences in an EST AA496068, which is about 150 kb upstream of the latrophilin 2 gene, and binding of this shRNA […] (SEQ ID NO: 2) activates latrophilin 2 and decreases β2-AR degradation. Thus SEQ ID NO: 2 serves as an activator or agonist of lactrophinin 2. The whole region covering the EST and latrophilin 2 is also annotated as KIAA0786. […] Cells were then labeled with anti-FLAG-FITC and analyzed by flow cytometry. FIG. 11B are histograms showing the distribution of cells treated with vehicle (upper panel) or ISO (lower panel) are shown above. […] Total RNA was isolated from cells transfected with NT or AA496068 EST siRNAs. Latrophilin 2 and AA496068 EST expression was determined by reverse transcription using random hexamers followed by quantitative real-time PCR."}, "[2]": {"test_system": "ARRDC3", "assay": "ARRDC3 protein knockdown by siRNA", "type": "cell-based, human"}, "[3]": {"biological_target": "T1, wild-type β2AR (Homo sapiens, UniProt P07550)", "T1 construct": "expressed in transfected cells; host or cells: HEK293 (293.β2AR^WT)", "assay": "β2AR ubiquitination assay, wild-type β2AR cells", "type": "cell-based", "conditions": "ISO stimulation", "experimental": "(§1) β2AR ubiquitination and degradation assays. Cells expressing […] or β2ARt were subjected to 10 μM ISO (Sigma) stimulation, lysed in 0.5% NP-40 lysis buffer and immunoblotted with anti-FLAG-HRP (Sigma). For β2AR ubiquitination, β2ARt or wt-β2AR expressing cells were first incubated with 10 μM alprenolol antagonist (Sigma) for 15 min (to reduce constitutive background ubiquitination), stimulated with 10 μM ISO and lysed in buffer supplemented with 10 mM N-ethylmaleimide (NEM; Sigma) to inhibit deubiquitinase activity. Anti-FLAG EZview beads (Sigma) used for the IP were subjected to three 10 min washes with lysis buffer and resuspended in 50 μl 2βLDS sample buffer (Invitrogen) containing 10% β-mercaptoethanol (Sigma) and analyzed by immunoblotting."}, "[4]": {"biological_target": "T1, wild-type β2AR", "assay": "Immunoblot of agonist-induced degradation of wild-type β2AR", "type": "cell-based", "conditions": "siRNA-transfected cells", "description": "β2AR ubiquitination and degradation assays. Cells expressing PAR or β2ARt were subjected to 10 μM ISO (Sigma) stimulation, lysed in 0.5% NP-40 lysis buffer and immunoblotted with anti-FLAG-HRP (Sigma). For β2AR ubiquitination, β2ARt or wt-β2AR expressing cells were first incubated with 10 μM alprenolol antagonist (Sigma) for 15 min (to reduce constitutive background ubiquitination), stimulated with 10 μM ISO and lysed in buffer supplemented with 10 mM N-ethylmaleimide (NEM; Sigma) to inhibit deubiquitinase activity. Anti-FLAG EZview beads (Sigma) used for the IP were subjected to three 10 min washes with lysis buffer and resuspended in 50 μl 2βLDS sample buffer (Invitrogen) containing 10% β-mercaptoethanol (Sigma) and analyzed by immunoblotting."}, "[5]": {"biological_target": "T2, β2ARt (Homo sapiens, UniProt P07550)", "T2 construct": "a distally truncated form (after residue 385) of β2AR (β2ARt); expressed in transfected cells; host or cells: HEK293 (293.β2AR*)", "assay": "β2AR ubiquitination assay, β2ARt cells", "type": "cell-based", "conditions": "ISO stimulation", "experimental": "as §1"}, "[6]": {"biological_target": "T3, NEDD4/β2AR (Homo sapiens, UniProt P07550)", "T3 construct": "a distally truncated form (after residue 385) of β2AR (β2ARt); expressed in transfected cells; host or cells: HEK293 cells stably expressing FLAG-β2ARt", "assay": "IP assay of NEDD4/β2AR association in β2ARt-expressing cells", "type": "cell-based", "conditions": "presence or absence of ISO stimulation", "experimental": "FIGS. 10A-10B show ARRDC3 is an essential adaptor for β2AR ubiquitination. […] Cells stably expressing FLAG-β2ARt were transfected with siRNAs targeting nothing (scrambled), ARRDC3, or β-arrestin-2 and then subjected to a treatment with vehicle or ISO. Anti-FLAG immunoprecipitates from the corresponding lysates and whole cell extracts (WCE) were analyzed by immunoblotting with the indicated antibodies. FIG. 10B is a schematic model of ARRDC3 functioning as an adaptor for β2AR ubiquitination.\nCo-immunoprecipitations (co-IP). 293T cells were transfected using Fugene 6 (Roche) or Turbofect (Fermentas). 48 h later, cells were lysed, pre-cleared with protein A agarose, and HA- or FLAG-tagged proteins were IP-ed using anti-HA EZview or anti-FLAG EZview beads. Washed beads were resuspended in sample buffer and analyzed by immunoblotting. Where noted, cross-linking was achieved by incubation for 40 min with 2 mM crosslinker dithio-bismaleimidoethane (DTME; Pierce) in PBS containing 10 mM Hepes (pH 7.5), as previously described (Shenoy et al, 2008) with minor modifications. IP complexes were washed three times consecutively in lysis, high salt, and low salt buffers then resuspended in sample buffer before immunoblotting."}, "[7]": {"biological_target": "T2, β2ARt", "assay": "Immunoblot of agonist-induced β2AR degradation in 293β2AR* / β2ARt cells", "type": "cell-based", "experimental": "as §1"}, "[8]": {"test_system": "surface β2-AR", "assay": "Surface β2-AR by FACS (α-Flag FITC) after AAEST siRNA", "type": "cell-based, human", "conditions": "text: HASM cells; legend FIG. 16A: HEK293 cells"}, "[9]": {"test_system": "β2AR", "assay": "Immunoblot of β2AR protein in human airway smooth muscle (HASM) cells", "description": "Error bars represented the standard deviations; Student t-test * p<0.05, n=2. […] Indirect Immunofluorescence staining of β2AR and phase contract images are shown.\nThree days after the inhibitor treatment cell lysates were collected and analyzed by immunoblotting. Three repeats were done with similar results.\nImmunoblot analysis. 48 h post DNA transfection, cells were wash with PBS and lysed with NP-40 lysing buffer (50 mM Tris-HCl pH7.5, 150 mM NaCl, 0.5% Nonidet P-40) containing protease inhibitor cocktail (Roche). Protein samples were separated on NuPAGE 10% Bis-Tris gels (Invitrogen) and transferred to nitrocellulose membranes (Bio-Rad). Immunoblot signals were developed using SuperSignal West Pico Chemiluminescent Substrate (Pierce, Rockford, Ill., USA) and quantified by a Luminescence Imager or exposed to X-ray films."}, "[10]": {"test_system": "β2AR", "assay": "qRT-PCR of β2AR mRNA in HASM cells", "type": "cell-based, human", "conditions": "AAEST siRNA"}, "[11]": {"test_system": "β2AR", "assay": "Baseline β2AR expression in cells after AAEST knockdown", "type": "cell-based"}, "[12]": {"test_system": "β2AR", "assay": "Immunoblot of exogenously expressed β2AR in 293β2AR cells", "type": "cell-based, human", "conditions": "at a higher concentration; three days", "text": "Three repeats were done with similar results."}}, "note": "d = 2'-deoxy (DNA); r = 2'-OH (RNA)"}
{"compound": "AA496068 EST siRNAs: siRNA having the sequence UAAUAUUUAAUGAGGCGGCCU (SEQ ID NO: 27) (listed as RNA, chemistry not given here)", "values": [{"measurement": "latrophilin 2 expression", "setting": "[1]", "value": "increases the expression of latrophilin 2"}]}
{"compound": "ARRDC3 siRNA: siRNA having the sequence GAACUGCUCUUCCCGAAUG (SEQ ID NO: 25) (chemistry not given here)", "values": [{"measurement": "knockdown of ARRDC3 protein expression", "setting": "[2]", "value": "> 75", "unit": "%"}, {"measurement": "reduction in ubiquitinated β2AR compared to ISO-treated control", "setting": "[3]", "value": "−30", "unit": "%"}, {"measurement": "ISO-induced degradation of wild-type β2AR", "setting": "[4]", "value": "blocked"}, {"measurement": "reduction in normalized amount of ubiquitinated β2AR compared to ISO-treated control", "setting": "[5]", "value": "−70", "unit": "%"}, {"measurement": "association of NEDD4 with β2AR", "setting": "[6]", "value": "completely abrogated"}, {"measurement": "level of un-degraded receptor after ISO vs scrambled control siRNA", "setting": "[7]; ISO-induced degradation of β2ARt", "value": "about 6 fold"}, {"measurement": "increase in basal level of the receptor", "setting": "[7]; prior to ISO stimulation", "value": "< 2", "unit": "fold"}]}
{"compound": "AAEST siRNA: 5′ UAAUAUUUAAUGAGGCGGCCUdTdT (SEQ ID NO: 34) and/or 5′ AGGCCGCCUCAUUAAAUAUUAdTdT (SEQ ID NO: 35) (chain 1 UAAUAUUUAAUGAGGCGGCCUTT; chain 2 AGGCCGCCUCAUUAAAUAUUATT; sugars from the 5' end r21 d2, backbone not given here)", "values": [{"measurement": "presence of β2-AR on the cell surface", "setting": "[8]", "value": "decreases the presence of β2-AR on the surface"}, {"measurement": "total β2-AR protein expression", "setting": "[9]; western blot, FIG. 16B", "value": "decreased total β2-AR protein expression"}, {"measurement": "mRNA expression level of β2-adrenergic receptor", "setting": "[10]", "value": "did not decrease the mRNA expression level"}, {"measurement": "baseline β2AR expression", "setting": "[11]", "value": "an increase in baseline β2AR expression"}]}
{"compound": "O=C(O)c1ccc2c3c1cccc3c(=O)n1c3ccccc3nc21", "note": "[STO-609]", "values": [{"measurement": "β2AR protein level", "setting": "[9]; at as low as 2 μM, three days", "value": "an increase in β2AR"}, {"measurement": "β2AR protein level", "setting": "[12]", "value": "increased exogenously expressed β2AR protein"}]}
